Source: PMC6966663 (Cancers, 2019)

What was measured:
p-PRAS40 = test system: p-PRAS40; parameters: method as in PMID 31118521; details: at 4 h post-dosing; cited from earlier work
[1] = parameters: method as in PMID 31478386; details: clinical; cited from earlier work
[2] = test system: cells with PI3K/AKT/mTOR pathway alterations; details: cited from earlier work
[3] = human, in vivo
Source text: Safety evaluations included adverse events (AEs), vital signs, laboratory tests, and 12-lead electrocardiograms at screening, at planned times during each cycle, during follow-up, and up to 30 days after the last dose. Adverse events were graded using the National Cancer Institute Common CTCAE version 4.03.
Descriptive statistics were used to summarize demographic data, other baseline characteristics, AEs, safety parameters, and tumor assessment data. […] All subjects who completed the study were included in the evaluation of PD/PK. […] The incidence of treatment-emergent adverse events and drug-related adverse events, respectively, was summarized by treatment in frequency tables using the CTCAE grade.

[4] = test system: HR+ advanced breast cancer; parameters: method as in PMID 31091374; details: in combination with fulvestrant, cited from earlier work

SMILES: NC1(C(=O)N[C@@H](CCO)c2ccc(Cl)cc2)CCN(c2ncnc3[nH]ccc23)CC1 [AZD5363]
- Reduction in p-PRAS40 (p-PRAS40): about 60%
- Rate of Grade 3 hyperglycemia [1]: up to 39.0%

SMILES: NC(=O)c1ccc2nc(-c3ccc(C4(N)CCC4)cc3)c(-c3ccccc3)n2n1 [BAY 1125976]
- IC50 of inhibition of proliferation [2]: submicromolar
- Patients with at least one treatment-emergent adverse event (TEAE) [3]: 77 (97.5%) patients
- Patients with serious adverse events (SAEs) [3]: 33 patients

SMILES: Cc1nc(NC(=O)N2CCC[C@H]2C(N)=O)sc1-c1ccnc(C(C)(C)C(F)(F)F)c1 [alpelisib]
- PFS ([4]; PIK3CA-mutated HR+ advanced breast cancer after previous endocrine therapy, versus 5.7 for control): 11.0 months
- Overall response rate ([4]; patients without PIK3CA mutation as printed, versus 12.8% placebo control): 26.6%
